Reference: patent US20120282710A1, “LIGAND BINDING DOMAINS OF NUCLEAR RECEPTORS IN CONTROLLABLE FORM AND METHODS INVOLVING THE SAME” (SANOFI, priority 2007, published 2012)
Structures can show the parent of a compound that is named as a salt.

Columns and labels:
[1] = target: T1, 6×His-RORalphaLBD protein (Homo sapiens, UniProt P35398); experiment: TR-FRET assay measuring RORalphaLBD interaction with the LXXLL peptide SRC1−NR1+2, Example 2; assay type: biochemical; settings: for binding of co-activator peptide SRC1−NR1+2 to RORα (increase in fluorescence intensity ratio): FIG. 2, increasing concentrations versus solvent only
T1 construct: made in house; host or cells: Sf9 insect cells (baculovirus, pVL1393)
T1 sequence (P35398 with tags, fused parts or gaps): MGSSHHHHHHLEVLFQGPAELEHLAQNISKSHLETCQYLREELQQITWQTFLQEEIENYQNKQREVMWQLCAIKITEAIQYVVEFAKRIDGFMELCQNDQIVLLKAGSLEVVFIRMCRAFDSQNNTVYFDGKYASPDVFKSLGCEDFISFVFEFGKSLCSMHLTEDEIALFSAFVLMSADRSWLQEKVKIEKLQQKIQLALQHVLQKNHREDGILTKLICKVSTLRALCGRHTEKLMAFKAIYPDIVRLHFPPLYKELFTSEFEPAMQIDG
Excerpt: In this assay, RORα is detected by a specific antibody bound to FRET donor Europium (Eu). The co-activator (CA) is biotin labeled. The biotin label is detecting by streptavidin, which encompasses the FRET acceptor allophycocyanin (APC) marker. If an agonist is bound to RORα, the NR is activated a CA binds to the NR. Accordingly, APC is brought into proximity of Eu, leading to a detecting FRET signal (left panel).
TR-FRET Assay Measuring RORalphaLBD Interaction with the LXXLL Peptide, SRC1−NR1+2
• 6×His-RORalpha: • source: Protein Production (Lab. Thomas Langer) treated with 3 mM LDS, stock solution at 1.5 mg/ml, storage at −20° C., pipetting at room temperature, corresponding to 47.5 μM (with MW 31.6 kD), Concentration in the assay=20 nM • SRC1−NR1+2: • source: JPT Peptide Technologies, stock solution at 250 μM, storage at −20° C., concentration in the assay=400 nM
• anti-6×His antibody: • source: Perkin Elmer #AD0110, stock solutions are at varying concentration with each batch, storage at −20° C., concentration in the assay=20 nM • strep-APC: • source: Perkin Elmer #AD0201, stock solutions are at varying concentration with each batch, storage at +4° C. after reconstitution, concentration in the assay=200 nM (based on streptavidin)
• Cholesterol sulfate: • source: SIGMA #C9523, stock solution in DMSO (30 mM), storage at −20° C.
• 50 mM Tris, 100 mM NaCl, 1 mM DTT, 0.1% Bovine Serum Albumin (add BSA fresh each day), adjust pH to 7.4
• Test plates: CORNING Costar #3639 (96 well half area)
All proteins, labels and compounds were diluted in the assay buffer just prior to assay setup. This assay was realised in 96 well half area plates. The final test volume was 20 μl. It is divided in 2 pipetting steps:
First, a mix containing 6×His-RORalphaLBD protein, BiotinSRC1−NR1+2 peptide, anti-6×His antibody and strep-APC was prepared on ice in the following concentrations: […]
The plates were incubated for 2 h in subdued light at room temperature and read on a Tecan ULTRA at room temperature with 340 nm excitation and 612 nm as Europium reference and 665 nm as APC FRET signal.

[2] = target: T2, RORαLBD protein (Homo sapiens, UniProt P35398); experiment: co-factor recruitment fluorescence resonance energy transfer assay (FRET), Example 1; assay type: biochemical; settings: for co-factor recruitment (fluorescence ratios at 665 nm and 612 nm): time resolved measurement, 20 nM RORαLBD, 400 nM biotin-labeled peptide, 2 hrs
T2 construct: made in house; host or cells: Sf9 insect cells (baculovirus, pVL1393)
T2 sequence (P35398 with tags, fused parts or gaps): T1 sequence (P35398 with tags, fused parts or gaps)
Experimental: 20 nM RORαLBD protein labeled with equimolar amounts of fluorescent anti-6×His antibody were incubated with 400 nM of the respective biotin-labeled peptide and equimolar amounts of a streptavidin-tagged fluorophore in a buffer containing 50 mM Tris, 100 mM NaCl, 1 mM DTT and 0.1% BSA for 2 hrs.

Compound | binding of co-activator peptide SRC1−NR1+2 to RORα (increase in fluorescence intensity ratio) [1] | co-factor recruitment (fluorescence ratios at 665 nm and 612 nm) [2] | EC50 [1] [µM] | EC50 [2] [µM]
CC(C)CCC[C@@H](C)[C@H]1CC[C@H]2[C@@H]3CC=C4C[C@@H](O)CC[C@]4(C)[C@H]3CC[C@]12C [Cholesterol] | dose-dependently induce binding | dose-dependent co-factor recruitment | – | –
CC(C)CCC[C@@H](C)[C@H]1CC[C@H]2[C@@H]3CC=C4C[C@@H](OS(=O)(=O)O)CC[C@]4(C)[C@H]3CC[C@]12C [Cholesterol sulfate] | dose-dependently induce binding | dose-dependent co-factor recruitment | ~10 | 22
